Source: patent US20240182470A1, “KRASG12C MUTANT PROTEIN INHIBITOR, PREARATION AND USE THEREOF” (YA THERAPEUTICS INC, priority 2021, published 2024)

System: H358 (KRAS G12C mutant) cells
Assay: Tumor cell proliferation inhibition assay (Cell Titer-Glo, 72 h)
Format: cell-based
Conditions: inhibition of tumor cell proliferation, 72 hours with compound, 10% fetal bovine serum; read-out: NCI-H538 IC50(nm)
Method: The H358 (KRAS G^12C mutant) cells were digested, centrifuged and resuspended, and the cell density was measured with a Scepter automatic cell counter. The cells were diluted to a solution containing 44,000 cells per milliliter, and the density-adjusted cell solution was 90 microliters per well. into a 96-well culture plate. The 96-well plate was placed in a 37° C., 5% CO2 incubator. After the cells were cultured for 24 hours, different concentrations of the compounds to be tested were added. The cells were incubated with the compounds for 72 hours in the presence of 10% fetal bovine serum. Glo Luminescent Cell Viability Assay Kit (see manufacturer's instructions for details) was used to measure ATP content to assess cell growth inhibition. Briefly, 30 μl of Cell Titer-Glo reagent was added to each well, and the plate was shaken for 10 minutes to induce cell lysis. Fluoroskan
Ascent FL (Thermo) assay was used to record the fluorescent signal, and the maximum signal value was obtained from cells treated with dimethyl sulfoxide for 72 hours. The minimum signal value was obtained from the medium alone (the number of cells was zero), and the % inhibition rate=(the maximum signal value compound signal value)/(the maximum signal value—the minimum signal value×100%, and the data were processed using Graphpadprism 5 software. By sigmoid Dose-response curve fitting to calculate the IC50 value. “A” means IC50≤50 nM; “B” means 50<IC50≤500 nM; “C” means 500<IC50≤2000 nM; “D” means 2000 nM<IC50

| Substance | IC50 [µM] |
| --- | --- |
| 6-Chloro-7-(3-hydroxy-8-fluoronaphthyl)-8-fluoro-4-(((S)-4-(2-fluoroacryloyl)-3-carbonitrileethylpiperazine)-1-yl)-2-(((S)-2,2-difluorotetrahydro-1H-pyrincycline-7a(5H)-yl)methoxy)quinazoline [Compound 77] | ≤ 0.05 |
| 6-Chloro-7-(3-hydroxy-8-fluoronaphthyl)-8-fluoro-4-(((S)-4-acryloyl-3-carbonitrileethylpiperazine)-1-yl)-2-(((S)-2,2-difluorotetrahydro-1H-pyrinyl-7a(5H)-yl)methoxy)quinazoline [Compound 76] | ≤ 0.05 |
| 6-Chloro-7-(8-fluoronaphthyl)-8-fluoro-4-(((R)-4-acryloyl-2-methylpiperazine)-1-yl)-2-(((2R,7aS)-2-fluorotetrahydro-1H-pyrincycline-7a(5H)-yl)methoxy)quinazoline [Compound 37] | ≤ 0.05 |
| 6-Chloro-7-(8-fluoronaphthyl)-8-fluoro-4-(((S)-4-acryloyl-3-carbonitrileethylpiperazine)-2-(((S)-2,2- difluorotetrahydro-1H-pyrincyclo-7a(5H)-yl)methoxy)quinazoline [Compound 75] | ≤ 0.05 |
| 6-Chloro-7-(8-methylnaphthyl)-8-fluoro-4-(((R)-4-acryloyl-2-methylpiperazine)-1-yl)-2-(((2R,7aS)-2-fluorotetrahydro-1H-pyrinyl-7a(5H)-yl)methoxy)quinazoline [Compound 73] | ≤ 0.05 |
| 6-Chloro-7-(8-methylnaphthyl)-8-fluoro-4-(((R)-4-acryloyl-2-methylpiperazine)-1-yl)-2-((((S))-2,2-Difluorotetrahydro-1H-pyrincycline-7a(5H)-yl)methoxy)quinazoline [Compound 74] | ≤ 0.05 |
| 6-Chloro-74(3-hydroxy-8-fluoronaphthyl)-8-fluoro-4-(((S)-4-(2-fluoroacryloyl)-3-carbonitrileethylpiperazine)-1-yl)-2-(((2R,7aS)-2-fluorotetrahydro-1H-pyrincycline-7a(5H)-yl)methoxy)quinazoline [Compound 43] | ≤ 0.05 |
| 7-(2-Fluoro-6-hydroxyphenyl)-6-fluoro-4-(((S)-4-(2-fluoroacryloyl)-3-carbonitrileethylpiperazine)-1-yl)-2-(((S)-1-(methyl-d3)pyrrolidin-2-yl)methoxy)pyridine[2,3-d]lopyrimidine [Compound 11] | > 2 |
| 7-(3-Hydroxy-8-fluoronaphthyl)-8-fluoro-4-(((R)-4-acryloyl-2-methylpiperazine)-1-yl)-2-(((S)-2,2-difluorotetrahydro-1H-pyrincycline-7a(5H)-yl)methoxy)quinazoline [Compound 70] | ≤ 0.05 |
| 7-(3-Hydroxy-8-fluoronaphthyl)-8-fluoro-4-(((S)-4-(2-fluoroacryloyl)-3-carbonitrileethylpiperazine)-2-((((S)-2,2-Difluorotetrahydro-1H-pyrincycline-7a(5H)-yl)methoxy)quinazoline [Compound 65] | ≤ 0.05 |
| 7-(3-Hydroxy-8-fluoronaphthyl)-8-fluoro-4-(((S)-4-acryloyl-3-carbonitrileethylpiperazine)-2-(((S)-2,2-difluorotetrahydro-1H-pyrincyclo-7a(5H)-yl)methoxy)quinazoline [Compound 64] | ≤ 0.05 |
| 7-(8-Chloronaphthalene)-4-(((R)-4-Acryloyl-2-methylpiperazine)-1-yl)-2-(((1-(pyrrolidin-1-yl)methancycloprop an-1-yl)methoxy)pyridine[2,3-d]lopyrimidine [Compound 14] | ≤ 0.05 |
| 7-(8-Chloronaphthalene)-4-(((R)-4-Acryloyl-2-methylpiperazine)-1-yl)-24(1-(N,N-dimethylamino)) methylcyclopropan-1-yl)methoxy)pyridine[2,3-d]lopyrimidine [Compound 23] | ≤ 0.05 |
| 7-(8-Chloronaphthalene)-4-(((R)-4-Acryloyl-3-carbonitrileethylpiperazine)-1-yl)-2-(((1-(pyrrolidin-1-yl)methylcyclopropan-1-yl)methoxy)pyridine[2,3-d]lopyrimidine [Compound 16] | ≤ 0.05 |
| 7-(8-Chloronaphthalene)-4-(((R)-4-Acryloyl-3-carbonitrileethylpiperazine)-1-yl)-24(1-(N,N-dimethylaminyl)methylcyclopropan-1-yl)methoxy)pyridine[2,3-d]lopyrimidine [Compound 20] | ≤ 0.05 |
| 7-(8-Fluoronaphthalene)-4-(((R)-4-Acryloyl-2-methylpiperazine)-1-yl)-2-(((1-(pyrrolidin-1-yl)methyl cyclopropan-1-yl)methoxy)pyridine[2,3-d]lopyrimidine [Compound 13] | ≤ 0.05 |

| Substance | IC50 [µM] |
| --- | --- |
| 7-(8-Fluoronaphthalene)-4-(((R)-4-Acryloyl-2-methylpiperazine)-1-yl)-24(1-(N,N-dimethylamino)) methylcyclopropan-1-yl)methoxy)pyridine[2,3-d]lopyrimidine [Compound 24] | ≤ 0.05 |
| 7-(8-Fluoronaphthalene)-4-(((R)-4-Acryloyl-3-carbonitrileethylpiperazine)-1-y1)-2-(((1-(pyrrolidin-1-yl)methylcyclopropan-1-yl)methoxy)pyridine[2,3-d]lopyrimidine [Compound 15] | ≤ 0.05 |
| 7-(8-Fluoronaphthalene)-4-(((R)-4-Acryloyl-3-carbonitrileethylpiperazine)-1-yl)-24(1-(N,N-dimethylamineyl)methylcyclopropan-1-yl)methoxy)pyridine[2,3-d]lopyrimidine [Compound 21] | ≤ 0.05 |
| 7-(8-Fluoronaphthyl)-6-fluoro-4-(8-(2-fluoroacryloyl)-3,8-diazabicyclo[3.2.1]octan-3-yl)-2-(((2R,7aS)-2-fluorotetrahydro-1H-pyrinyl-7a(5H)-yl)methoxy)pyridine[2,3-d]lopyrimidine [Compound 31] | ≤ 0.05 |
| 7-(8-Fluoronaphthyl)-6-fluoro-4-(((R)-4-acryloyl-2-methylpiperazine)-1-yl)-2-(((S)-2,2-difluorotetrahydro-1H-pyrincycl-7a(5H)-yl)methoxy)pyridine[2,3-d]lopyrimidine [Compound 79] | ≤ 0.05 |
| 7-(8-Fluoronaphthyl)-6-fluoro-4-(((S)-4-(2-acryloyl)-3-carbonitrileethylpiperazine)-1-yl)-2-((((S)-1-(methyl-d3)pyrrolidin-2-yl)methoxy)pyridine[2,3-d]lopyrimidine [Compound 9] | ≤ 0.05 |
| 7-(8-Fluoronaphthyl)-8-fluoro-4-(((R)-4-acryloyl-2-methylpiperazine)-1-yl)-2-(((2R,7aS)-2-fluorotetrahydro-1H-pyrincyclo-7a(5H)-yl)methoxy)quinazoline [Compound 69] | ≤ 0.05 |
| 7-(8-Fluoronaphthyl)-8-fluoro-4-(((S)-4-(2-fluoro acryloyl)-3-c arbonitrileethylpiperazine)-1-yl)-2-((tetrakis Hydrogen-1H-pyrinyl-7a(5H)-yl)methoxy)quinazoline [Compound 88] | ≤ 0.05 |
| 7-(8-Fluoronaphthyl)-8-fluoro-4-(((S)-4-acryloyl-3-carbonitrileethylpiperazine)-1-yl)-2-(((S)-2,2-Difluorotetrahydro-1H-pyrinyl-7a(5H)-yl)methoxy)quinazoline [Compound 63] | ≤ 0.05 |
| 7-(8-Fluoronaphthyl)-8-fluoro-(((S)-4-(2-fluoroacryloyl)-3-carbonitrileethylpiperazine)-1-yl)-2-((((S)-2,2-difluorotetrahydro-1H-pyrincycline-7a(5H)-yl)methoxy)quinazoline [Compound 66] | ≤ 0.05 |
| 7-(8-Methylnaphthalene)-4-(((R)-4-Acryloyl-2-methylpiperazine)-1-yl)-2-(((1-(pyrrolidin-1-yl)methylcyclopropan-1-yl)methoxy)pyridine[2,3-d]lopyrimidine [Compound 17] | ≤ 0.05 |
| 7-(8-Methylnaphthalene)-4-(((R)-4-Acryloyl-2-methylpiperazine)-1-yl)-24(1-(N,N-dimethylamineyl)methylcyclopropan-1-yl)methoxy)pyridine[2,3-d]lopyrimidine [Compound 22] | ≤ 0.05 |
| 7-(8-Methylnaphthalene)-4-(((R)-4-Acryloyl-3-carbonitrileethylpiperazine)-1-yl)-2-(((1-(pyrrolidin-1-yl))methylcyclopropan-1-yl)methoxy)pyridine[2,3-d]lopyrimidine [Compound 18] | ≤ 0.05 |
| 7-(8-Methylnaphthalene)-4-(((R)-4-Acryloyl-3-carbonitrileethylpiperazine)-1-yl)-24(1-(N,N-Dimethyl)amino)methylcyclopropan-1-yl)methoxy)pyridine[2,3-d]lopyrimidine [Compound 19] | ≤ 0.05 |
| 7-(8-Methylnaphthyl)-4-(((R)-4-acryloyl-2-methylpiperazine)-1-yl)-2-(((S)-2,2-difluoro tetrahydro-1H-pyrincycl-7a(5H)-yl)methoxy)pyridine[2,3-d]lopyrimidine [Compound 87] | ≤ 0.05 |
